Results from ChEMBL document CHEMBL3885861, “Open TG-GATES”.

Species: Rattus norvegicus
Assay: Open TG-GATES - Regimen: Single
Format: toxicity, organism-based, Sprague-Dawley
Set-up: regimen Single, gender Male, age 6 weeks
Settings: in vivo, po, route gavage; for APTT / Bas / Eos / Fbg / Hb / Ht / Lym / MCH / MCHC / MCV / Mono / Neu / PT / Plat / RBC / Ret / WBC: tissue Blood; for KIDNEY_L / KIDNEY_R / KIDNEY_TOTAL: tissue Kidney; for LIVER: tissue Liver; for A/G / ALP / ALT / AST / BUN / CRE / Ca / Cl / DBIL / GLC / IP / K / LDH / Na / PL / RALB / TBIL / TC / TG / TP / gamma-GTP: tissue Plasma
[1] = 300 mg/kg, 3 h, dose level Middle
[2] = 300 mg/kg, 6 h, dose level Middle
[3] = 300 mg/kg, 9 h, dose level Middle
[4] = 300 mg/kg, 24 h, dose level Middle
[5] = 1000 mg/kg, 3 h, dose level High
[6] = 1000 mg/kg, 6 h, dose level High
[7] = 1000 mg/kg, 9 h, dose level High
[8] = 1000 mg/kg, 24 h, dose level High

## CCc1cc(C(N)=S)ccn1 [ETHIONAMIDE]
[1]
  TERMINAL_BW: 230.2 g
  APTT: 17.6 s
  Bas: 0%
  Eos: 1%
  Fbg: 208.2 mg/dL
  Hb: 13.7 g/dL
  Ht: 40.6%
  Lym: 79.4%
  MCH: 21.7 pg
  MCHC: 33.7%
  MCV: 64.3 fL
  Mono: 4.8%
  Neu: 15.4%
  PT: 12.5 s
  Plat: 121.1 x10_4/uL
  RBC: 631.4 x10_4/ul
  Ret: 7.4%
  WBC: 69.7 x10_2/uL
  KIDNEY_L: 1 g
  KIDNEY_R: 1.1 g
  KIDNEY_TOTAL: 2.1 g
  LIVER: 11.4 g
  A/G: 1.8
  ALP: 771 IU/L
  ALT: 30.2 IU/L
  AST: 62.8 IU/L
  BUN: 15.6 mg/dL
  CRE: 0.6 mg/dL
  Ca: 10.8 mg/dL
  Cl: 102 meq/L
  DBIL: 0.016 mg/dL
  GLC: 200 mg/dL
  IP: 9.6 mg/dL
  K: 4.2 meq/L
  LDH: 102.4 IU/L
  Na: 141.2 meq/L
  PL: 126.2 mg/dL
  RALB: 3.5 g/dL
  TBIL: 0.4 mg/dL
  TC: 70.4 mg/dL
  TG: 63 mg/dL
  TP: 5.5 g/dL
  gamma-GTP: 1.4 IU/L
[2]
  TERMINAL_BW: 225.7 g
  APTT: 18.3 s
  Bas: 0%
  Eos: 0.8%
  Fbg: 203 mg/dL
  Hb: 14.5 g/dL
  Ht: 43.1%
  Lym: 80.6%
  MCH: 21.8 pg
  MCHC: 33.6%
  MCV: 64.7 fL
  Mono: 6.4%
  Neu: 12.4%
  PT: 13.5 s
  Plat: 124 x10_4/uL
  RBC: 667 x10_4/ul
  Ret: 7.8%
  WBC: 112.6 x10_2/uL
  KIDNEY_L: 1 g
  KIDNEY_R: 1 g
  KIDNEY_TOTAL: 2 g
  LIVER: 10.7 g
  A/G: 2
  ALP: 845.6 IU/L
  ALT: 32.8 IU/L
  AST: 73.2 IU/L
  BUN: 18.4 mg/dL
  CRE: 0.5 mg/dL
  Ca: 11.3 mg/dL
  Cl: 104.2 meq/L
  DBIL: 0.008 mg/dL
  GLC: 188.6 mg/dL
  IP: 9.8 mg/dL
  K: 4.3 meq/L
  LDH: 135.2 IU/L
  Na: 140 meq/L
  PL: 122.8 mg/dL
  RALB: 3.7 g/dL
  TBIL: 0.5 mg/dL
  TC: 66 mg/dL
  TG: 34.2 mg/dL
  TP: 5.6 g/dL
  gamma-GTP: 1 IU/L
[3]
  TERMINAL_BW: 224 g
  APTT: 18.1 s
  Bas: 0%
  Eos: 1.4%
  Fbg: 208.6 mg/dL
  Hb: 14.2 g/dL
  Ht: 42.3%
  Lym: 68.8%
  MCH: 21.2 pg
  MCHC: 33.7%
  MCV: 63.1 fL
  Mono: 8.4%
  Neu: 21.4%
  PT: 14.4 s
  Plat: 119.7 x10_4/uL
  RBC: 669.8 x10_4/ul
  Ret: 7.6%
  WBC: 69.4 x10_2/uL
  KIDNEY_L: 1 g
  KIDNEY_R: 1 g
  KIDNEY_TOTAL: 1.9 g
  LIVER: 10.1 g
  A/G: 2
  ALP: 660.4 IU/L
  ALT: 31 IU/L
  AST: 72 IU/L
  BUN: 15.6 mg/dL
  CRE: 0.5 mg/dL
  Ca: 10.7 mg/dL
  Cl: 106 meq/L
  DBIL: 0.01 mg/dL
  GLC: 195.2 mg/dL
  IP: 10.3 mg/dL
  K: 4.2 meq/L
  LDH: 86.2 IU/L
  Na: 143 meq/L
  PL: 106.6 mg/dL
  RALB: 3.6 g/dL
  TBIL: 0.4 mg/dL
  TC: 57.2 mg/dL
  TG: 19.8 mg/dL
  TP: 5.5 g/dL
  gamma-GTP: 0.8 IU/L
[4]
  TERMINAL_BW: 231.6 g
  APTT: 17.5 s
  Bas: 0%
  Eos: 1%
  Fbg: 194.8 mg/dL
  Hb: 14.2 g/dL
  Ht: 42%
  Lym: 66.2%
  MCH: 21.7 pg
  MCHC: 33.7%
  MCV: 64.3 fL
  Mono: 10%
  Neu: 23.2%
  PT: 13.6 s
  Plat: 112.3 x10_4/uL
  RBC: 653.6 x10_4/ul
  Ret: 7.7%
  WBC: 95 x10_2/uL
  KIDNEY_L: 1.1 g
  KIDNEY_R: 1.1 g
  KIDNEY_TOTAL: 2.2 g
  LIVER: 11.3 g
  A/G: 1.9
  ALP: 1035.2 IU/L
  ALT: 50.4 IU/L
  AST: 81.6 IU/L
  BUN: 15 mg/dL
  CRE: 0.6 mg/dL
  Ca: 10.6 mg/dL
  Cl: 104.6 meq/L
  DBIL: 0.028 mg/dL
  GLC: 190.8 mg/dL
  IP: 7.9 mg/dL
  K: 4.5 meq/L
  LDH: 106.2 IU/L
  Na: 141 meq/L
  PL: 105.2 mg/dL
  RALB: 3.4 g/dL
  TBIL: 0.4 mg/dL
  TC: 49.8 mg/dL
  TG: 77 mg/dL
  TP: 5.2 g/dL
  gamma-GTP: 1.4 IU/L
[5]
  TERMINAL_BW: 227.9 g
  APTT: 17.7 s
  Bas: 0%
  Eos: 1%
  Fbg: 212.6 mg/dL
  Hb: 13.7 g/dL
  Ht: 40.6%
  Lym: 70.8%
  MCH: 21.4 pg
  MCHC: 33.8%
  MCV: 63.5 fL
  Mono: 8.4%
  Neu: 19.8%
  PT: 12.4 s
  Plat: 112.8 x10_4/uL
  RBC: 640 x10_4/ul
  Ret: 7.9%
  WBC: 62.9 x10_2/uL
  KIDNEY_L: 1 g
  KIDNEY_R: 1 g
  KIDNEY_TOTAL: 2 g
  LIVER: 11.1 g
  A/G: 1.9
  ALP: 715 IU/L
  ALT: 33.6 IU/L
  AST: 69 IU/L
  BUN: 13.4 mg/dL
  CRE: 0.5 mg/dL
  Ca: 11 mg/dL
  Cl: 100 meq/L
  DBIL: 0.014 mg/dL
  GLC: 202.8 mg/dL
  IP: 9.1 mg/dL
  K: 4 meq/L
  LDH: 106.4 IU/L
  Na: 139.2 meq/L
  PL: 130.4 mg/dL
  RALB: 3.7 g/dL
  TBIL: 0.4 mg/dL
  TC: 78.6 mg/dL
  TG: 46 mg/dL
  TP: 5.7 g/dL
  gamma-GTP: 1.2 IU/L
[6]
  TERMINAL_BW: 227.1 g
  APTT: 18.3 s
  Bas: 0%
  Eos: 0.8%
  Fbg: 209.2 mg/dL
  Hb: 14.4 g/dL
  Ht: 43.1%
  Lym: 75.6%
  MCH: 21.9 pg
  MCHC: 33.5%
  MCV: 65.3 fL
  Mono: 7.6%
  Neu: 16%
  PT: 13.8 s
  Plat: 118.7 x10_4/uL
  RBC: 659.2 x10_4/ul
  Ret: 7.9%
  WBC: 98.1 x10_2/uL
  KIDNEY_L: 1 g
  KIDNEY_R: 1 g
  KIDNEY_TOTAL: 2 g
  LIVER: 10.4 g
  A/G: 1.8
  ALP: 679 IU/L
  ALT: 33.8 IU/L
  AST: 74.8 IU/L
  BUN: 16 mg/dL
  CRE: 0.5 mg/dL
  Ca: 10.9 mg/dL
  Cl: 102.8 meq/L
  DBIL: 0.004 mg/dL
  GLC: 192.4 mg/dL
  IP: 9.4 mg/dL
  K: 4 meq/L
  LDH: 119.2 IU/L
  Na: 139.2 meq/L
  PL: 111.8 mg/dL
  RALB: 3.6 g/dL
  TBIL: 0.5 mg/dL
  TC: 62.4 mg/dL
  TG: 17.8 mg/dL
  TP: 5.6 g/dL
  gamma-GTP: 1.2 IU/L
[7]
  TERMINAL_BW: 224.3 g
  APTT: 18.3 s
  Bas: 0%
  Eos: 1.2%
  Fbg: 209 mg/dL
  Hb: 14 g/dL
  Ht: 41.3%
  Lym: 73.8%
  MCH: 21.2 pg
  MCHC: 33.8%
  MCV: 62.8 fL
  Mono: 8.4%
  Neu: 16.8%
  PT: 14.6 s
  Plat: 121.3 x10_4/uL
  RBC: 657 x10_4/ul
  Ret: 7.5%
  WBC: 77.3 x10_2/uL
  KIDNEY_L: 1 g
  KIDNEY_R: 1 g
  KIDNEY_TOTAL: 2 g
  LIVER: 9.7 g
  A/G: 1.9
  ALP: 641 IU/L
  ALT: 36.2 IU/L
  AST: 75.2 IU/L
  BUN: 16.4 mg/dL
  CRE: 0.5 mg/dL
  Ca: 10.6 mg/dL
  Cl: 104.6 meq/L
  DBIL: 0.018 mg/dL
  GLC: 202 mg/dL
  IP: 9.6 mg/dL
  K: 4.3 meq/L
  LDH: 99 IU/L
  Na: 140.6 meq/L
  PL: 107.8 mg/dL
  RALB: 3.5 g/dL
  TBIL: 0.4 mg/dL
  TC: 59.4 mg/dL
  TG: 14.8 mg/dL
  TP: 5.3 g/dL
  gamma-GTP: 1.2 IU/L
[8]
  TERMINAL_BW: 219.4 g
  APTT: 18.9 s
  Bas: 0%
  Eos: 1.6%
  Fbg: 186.4 mg/dL
  Hb: 15.3 g/dL
  Ht: 45.1%
  Lym: 62.2%
  MCH: 22.2 pg
  MCHC: 34%
  MCV: 65.3 fL
  Mono: 7.8%
  Neu: 28.2%
  PT: 15.4 s
  Plat: 118 x10_4/uL
  RBC: 691.2 x10_4/ul
  Ret: 8.3%
  WBC: 63.3 x10_2/uL
  KIDNEY_L: 1 g
  KIDNEY_R: 1 g
  KIDNEY_TOTAL: 2 g
  LIVER: 10.1 g
  A/G: 2
  ALP: 839.2 IU/L
  ALT: 36.6 IU/L
  AST: 68.6 IU/L
  BUN: 13 mg/dL
  CRE: 0.6 mg/dL
  Ca: 10.3 mg/dL
  Cl: 102.2 meq/L
  DBIL: 0.054 mg/dL
  GLC: 228.8 mg/dL
  IP: 8.3 mg/dL
  K: 3.9 meq/L
  LDH: 87.6 IU/L
  Na: 140.8 meq/L
  PL: 86.6 mg/dL
  RALB: 3.6 g/dL
  TBIL: 0.4 mg/dL
  TC: 41.4 mg/dL
  TG: 41.8 mg/dL
  TP: 5.3 g/dL
  gamma-GTP: 0.4 IU/L
